Assay results published in BindingDB's records for patent US20250074891 (Anaxis Pharma, 2025).

How the values were obtained:
Assay in all cases: In Vitro Assay
[1] = target: T1, Mixed lineage kinase domain-like protein (Homo sapiens, UniProt Q8NB16)
T1 sequence (Q8NB16 whole entry): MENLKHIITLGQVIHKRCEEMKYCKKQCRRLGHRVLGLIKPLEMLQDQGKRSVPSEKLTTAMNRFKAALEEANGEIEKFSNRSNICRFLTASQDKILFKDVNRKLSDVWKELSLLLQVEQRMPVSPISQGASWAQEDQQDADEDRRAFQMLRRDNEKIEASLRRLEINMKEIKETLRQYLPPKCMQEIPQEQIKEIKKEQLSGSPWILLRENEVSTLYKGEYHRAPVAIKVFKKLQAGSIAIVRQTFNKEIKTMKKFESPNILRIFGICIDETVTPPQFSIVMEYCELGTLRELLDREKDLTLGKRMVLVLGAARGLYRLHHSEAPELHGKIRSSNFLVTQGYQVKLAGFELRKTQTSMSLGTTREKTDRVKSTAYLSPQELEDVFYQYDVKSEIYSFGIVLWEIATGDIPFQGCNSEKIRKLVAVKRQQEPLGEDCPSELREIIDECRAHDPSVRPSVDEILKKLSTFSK
Experimental: (§1) Kinase assays. For most assays, kinase-tagged T7 phage strains were grown in parallel in 24-well blocks in an E. coli host derived from the BL21 strain. E. coli were grown to log-phase and infected with T7 phage from a frozen stock (multiplicity of infection=0.4) and incubated with shaking at 32° C. until lysis (90-150 minutes).

[2] = target: T2, Receptor-interacting serine/threonine-protein kinase 1 (Homo sapiens, UniProt Q13546)
T2 sequence (Q13546 whole entry): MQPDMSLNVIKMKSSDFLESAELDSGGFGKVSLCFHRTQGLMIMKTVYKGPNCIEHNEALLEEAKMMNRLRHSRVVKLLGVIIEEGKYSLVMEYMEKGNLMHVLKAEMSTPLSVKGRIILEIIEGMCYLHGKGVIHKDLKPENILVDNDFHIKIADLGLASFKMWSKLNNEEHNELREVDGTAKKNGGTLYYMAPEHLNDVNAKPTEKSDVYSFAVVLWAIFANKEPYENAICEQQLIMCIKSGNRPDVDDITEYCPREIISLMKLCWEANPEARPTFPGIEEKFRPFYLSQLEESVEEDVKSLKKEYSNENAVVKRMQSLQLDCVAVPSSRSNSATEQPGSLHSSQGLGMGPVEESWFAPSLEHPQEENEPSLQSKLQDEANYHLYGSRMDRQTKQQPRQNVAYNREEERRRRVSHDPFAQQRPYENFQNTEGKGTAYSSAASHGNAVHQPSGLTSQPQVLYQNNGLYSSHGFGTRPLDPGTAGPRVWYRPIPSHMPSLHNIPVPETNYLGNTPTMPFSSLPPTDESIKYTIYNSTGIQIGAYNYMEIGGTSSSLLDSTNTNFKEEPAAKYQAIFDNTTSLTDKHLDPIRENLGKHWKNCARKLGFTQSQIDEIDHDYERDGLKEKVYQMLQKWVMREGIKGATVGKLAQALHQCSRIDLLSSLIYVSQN
Experimental: as §1

[3] = target: Receptor-interacting serine/threonine-protein kinase 3 (Homo sapiens, UniProt Q9Y572)
Chain of Receptor-interacting serine/threonine-protein kinase 3 (Q9Y572 whole entry): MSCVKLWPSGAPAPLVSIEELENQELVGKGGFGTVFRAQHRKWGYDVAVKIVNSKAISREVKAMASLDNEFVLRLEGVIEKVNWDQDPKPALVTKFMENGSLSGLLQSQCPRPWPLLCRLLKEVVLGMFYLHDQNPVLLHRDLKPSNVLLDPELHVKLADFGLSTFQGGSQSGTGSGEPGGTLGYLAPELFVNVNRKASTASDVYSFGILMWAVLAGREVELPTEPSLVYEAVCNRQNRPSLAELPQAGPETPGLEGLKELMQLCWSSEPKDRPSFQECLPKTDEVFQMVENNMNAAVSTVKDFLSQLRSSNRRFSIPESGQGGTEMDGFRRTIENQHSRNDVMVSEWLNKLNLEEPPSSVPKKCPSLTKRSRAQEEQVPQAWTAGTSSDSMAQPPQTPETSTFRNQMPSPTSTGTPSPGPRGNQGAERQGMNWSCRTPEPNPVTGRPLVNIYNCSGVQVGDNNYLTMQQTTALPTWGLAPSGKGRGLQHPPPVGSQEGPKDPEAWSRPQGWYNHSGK
Experimental: as §1

| SMILES | Kd [1] | Kd [2] [µM] | Kd [3] [µM] |
| --- | --- | --- | --- |
| NC(=O)c1c(-c2ccc(NS(=O)(=O)Cc3ccc(Cl)cc3)cc2)n[nH]c1Nc1cccc(C(F)(F)F)n1 [US20250074891, Compound 60] | – | > 30 | > 30 |
| CCS(=O)(=O)Nc1ccc(-c2n[nH]c(Nc3cccc(C(F)F)n3)c2C(N)=O)cc1 [US20250074891, Compound 92] | < 0.01 µM | > 30 | – |
| CCOc1nccc(Nc2[nH]nc(-c3ccc(NS(=O)(=O)CC)cc3)c2C(N)=O)n1 [US20250074891, Compound 98] | < 0.01 µM | > 30 | > 30 |
| Cc1ncsc1-c1ccc(CNC(=O)[C@@H]2C[C@@H](O)CN2C(=O)[C@@H](NC(=O)CCCCOc2ccc(Nc3[nH]nc(-c4ccc(NS(=O)(=O)C(F)F)c(OCc5ccc(F)cc5)c4)c3C(N)=O)nc2)C(C)(C)C)cc1 [US20250074891, Compound 1025] | < 0.01 µM | – | – |

The next lines start with the values.

| Kd [1] | Kd [2] [µM] | Kd [3] [µM] | SMILES |
| --- | --- | --- | --- |
| in the range around 0.505 µM | > 30 | > 30 | NC(=O)c1c(-c2ccc(NS(=O)(=O)CC(F)(F)F)c(OCc3ccc(F)cc3)c2)n[nH]c1Nc1cccc(C(F)(F)F)n1 |
| < 0.01 µM | > 30 | > 30 | CCS(=O)(=O)Nc1ccc(-c2n[nH]c(Nc3cnccn3)c2C(N)=O)cc1OC1CCCc2cc(F)ccc21 (stereo not given) [US20250074891, Compound 224] |
| < 0.01 µM | > 30 | > 30 | C[C@H](Oc1cc(-c2n[nH]c(Nc3cc(C4(C)CCOCC4)on3)c2C(N)=O)ccc1NS(=O)(=O)C(F)F)c1ccc(F)cc1 [US20250074891, Compound 301] |
| < 0.01 µM | > 30 | > 30 | C[C@H](Oc1cc(-c2n[nH]c(Nc3cc(C4CC4)on3)c2C(N)=O)ccc1NS(=O)(=O)C(F)F)c1ccc(F)cc1 [US20250074891, Compound 310] |
